According to ChEMBL document CHEMBL3351570, “Design and synthesis of 2-phenylnaphthalenoids as inhibitors of DNA topoisomeraseIIα and antitumor agents” (Eur J Med Chem, 2014):
Active and inactive are the calls of the source. The rule behind the calls is not given here.

What was measured:
[1] = test system: MDA-MB-231; experiment: Induction of cell cycle arrest in human MDA-MB-231 cells assessed as reduction in accumulation at G0/G1 phase at 5 uM after 24 hrs by propidium iodide staining based flow cytometry; format: functional
[2] = test system: MDA-MB-231; experiment: Induction of DNA damage in human MDA-MB-231 cells assessed as increase in p53 S46 phosphorylation at 1 to 5 uM after 24 hrs by Western blot method; format: functional, cell-based
[3] = test system: MDA-MB-231; experiment: Induction of DNA damage in human MDA-MB-231 cells assessed as increase in ATR S428 phosphorylation at 1 to 5 uM after 24 hrs by Western blot method; format: functional, cell-based
[4] = test system: MDA-MB-231; experiment: Induction of DNA damage in human MDA-MB-231 cells assessed as ATR expression level at 1 to 5 uM after 24 hrs by Western blot method; format: functional, cell-based
[5] = test system: MDA-MB-231; experiment: Induction of cell cycle arrest in human MDA-MB-231 cells assessed as reduction in accumulation at S phase at 5 uM after 24 hrs by propidium iodide staining based flow cytometry; format: functional
[6] = test system: MDA-MB-231; experiment: Induction of DNA damage in human MDA-MB-231 cells assessed as increase in p53 expression level at 1 to 5 uM after 24 hrs by Western blot method; format: functional, cell-based
[7] = test system: MDA-MB-231; experiment: Increase in histone H3 Ser10 phosphorylation in human MDA-MB-231 cells at 1 to 5 uM after 24 hrs by Western blot method; format: functional, cell-based
[8] = target: DNA topoisomerase 2-alpha (Homo sapiens) (UniProt P11388); experiment: Inhibition of human recombinant topoisomerase 2alpha assessed as increase in linear DNA using circular supercoiled plasmid DNA substrate at 100 to 200 uM incubated for 30 mins by ethidium bromide staining based DNA gel electrophoresis
Sequence of DNA topoisomerase 2-alpha (Homo sapiens) (P11388 whole entry): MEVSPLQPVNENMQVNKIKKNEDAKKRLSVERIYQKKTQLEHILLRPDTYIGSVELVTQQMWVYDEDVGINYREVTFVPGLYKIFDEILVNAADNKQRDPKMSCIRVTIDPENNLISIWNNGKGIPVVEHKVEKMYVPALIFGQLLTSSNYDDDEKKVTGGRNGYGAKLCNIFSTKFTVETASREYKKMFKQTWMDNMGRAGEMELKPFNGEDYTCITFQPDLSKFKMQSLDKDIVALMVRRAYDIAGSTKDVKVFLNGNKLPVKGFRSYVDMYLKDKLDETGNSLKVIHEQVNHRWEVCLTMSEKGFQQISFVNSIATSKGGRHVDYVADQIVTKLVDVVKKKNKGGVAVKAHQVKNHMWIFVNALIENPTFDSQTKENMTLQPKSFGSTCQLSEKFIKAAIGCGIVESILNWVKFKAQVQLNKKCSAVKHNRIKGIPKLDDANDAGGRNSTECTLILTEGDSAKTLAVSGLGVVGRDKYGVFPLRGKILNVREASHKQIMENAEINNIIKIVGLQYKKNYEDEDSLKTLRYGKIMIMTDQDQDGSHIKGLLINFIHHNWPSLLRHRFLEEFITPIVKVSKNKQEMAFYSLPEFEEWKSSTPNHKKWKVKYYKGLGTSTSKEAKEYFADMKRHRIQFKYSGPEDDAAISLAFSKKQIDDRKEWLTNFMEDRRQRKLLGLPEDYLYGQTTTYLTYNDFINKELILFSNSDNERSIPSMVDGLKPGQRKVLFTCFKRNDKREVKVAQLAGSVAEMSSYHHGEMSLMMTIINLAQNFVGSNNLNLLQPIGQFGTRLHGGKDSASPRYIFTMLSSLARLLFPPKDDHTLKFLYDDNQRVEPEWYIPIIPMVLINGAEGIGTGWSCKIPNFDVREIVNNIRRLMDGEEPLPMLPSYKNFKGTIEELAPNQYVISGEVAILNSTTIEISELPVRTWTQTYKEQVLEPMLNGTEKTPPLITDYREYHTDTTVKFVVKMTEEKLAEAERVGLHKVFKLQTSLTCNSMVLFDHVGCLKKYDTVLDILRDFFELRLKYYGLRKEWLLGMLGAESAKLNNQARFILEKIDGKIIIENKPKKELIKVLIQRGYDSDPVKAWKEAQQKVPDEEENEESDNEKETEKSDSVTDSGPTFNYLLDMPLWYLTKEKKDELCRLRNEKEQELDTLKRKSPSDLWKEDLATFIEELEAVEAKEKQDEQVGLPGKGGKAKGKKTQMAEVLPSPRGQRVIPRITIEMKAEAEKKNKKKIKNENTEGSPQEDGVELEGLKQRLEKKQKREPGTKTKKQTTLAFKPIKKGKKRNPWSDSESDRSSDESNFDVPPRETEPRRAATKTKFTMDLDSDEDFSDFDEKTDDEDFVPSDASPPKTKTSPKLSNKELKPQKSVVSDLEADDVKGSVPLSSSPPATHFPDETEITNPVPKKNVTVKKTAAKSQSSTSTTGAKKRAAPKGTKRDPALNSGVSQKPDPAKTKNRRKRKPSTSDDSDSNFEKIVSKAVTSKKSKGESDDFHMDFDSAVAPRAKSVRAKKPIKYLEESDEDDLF

[9] = test system: MDA-MB-231; experiment: Increase in cyclin B protein expression in human MDA-MB-231 cells at 1 to 5 uM after 24 hrs by Western blot method; format: functional, cell-based
[10] = test system: MDA-MB-231; experiment: Effect on cdc2 protein expression in human MDA-MB-231 cells at 1 to 5 uM after 24 hrs by Western blot method; format: functional, cell-based
[11] = test system: MDA-MB-231; experiment: Induction of DNA damage in human MDA-MB-231 cells assessed as increase in gammaH2AX protein expression at 1 to 5 uM after 24 hrs by Western blot method; format: functional, cell-based
[12] = test system: Mus musculus; experiment: Toxicity in nude BALB/c mouse xenografted with human MDA-MB-231 cells assessed as reduction in body weight at 20 mg/kg, iv dosed every other day for 15 days (reference value: 24.2 g); format: organism-based; set-up: dose 20 mg/kg, route intravenous; settings: in vivo, 360 h
[13] = test system: MDA-MB-231; experiment: Induction of DNA damage in human MDA-MB-231 cells assessed as ATM S1981 phosphorylation at 1 to 5 uM after 24 hrs by Western blot method; format: functional, cell-based
[14] = test system: MDA-MB-231; experiment: Induction of cell cycle arrest in human MDA-MB-231 cells assessed as accumulation at G2/M phase at 5 uM after 24 hrs by propidium iodide staining based flow cytometry (reference value: 25.19%); format: functional
[15] = test system: MDA-MB-231; experiment: Cytotoxicity against human MDA-MB-231 cells after 72 hrs by sulforhodamine B assay; format: functional, cell-based; settings: MDA-MB-231, 72 h
[16] = target: DNA topoisomerase 2-alpha (Homo sapiens) (UniProt P11388); experiment: Inhibition of human recombinant topoisomerase 2alpha assessed as reduction in pBR322 DNA relaxation incubated for 30 mins by DNA gel electrophoresis
[17] = test system: Nucleic Acid; experiment: Induction of DNA intercalation in Escherichia coli pBR322 DNA at 50 to 200 uM by DNA gel electrophoresis; format: nucleic-acid assay
[18] = target: DNA topoisomerase 2-alpha (Homo sapiens) (UniProt P11388); experiment: Inhibition of human recombinant topoisomerase 2alpha assessed as reduction in kDNA decatenation at 100 uM incubated for 30 mins by DNA gel electrophoresis
[19] = target: DNA topoisomerase 2-alpha (Homo sapiens) (UniProt P11388); experiment: Inhibition of human recombinant topoisomerase 2alpha assessed as reduction in pBR322 DNA relaxation at 200 uM incubated for 30 mins by DNA gel electrophoresis
[20] = test system: A549; experiment: Cytotoxicity against human A549 cells after 72 hrs by sulforhodamine B assay; format: functional, cell-based; settings: A549, 72 h
[21] = test system: HeLa; experiment: Cytotoxicity against human HeLa cells after 72 hrs by sulforhodamine B assay; format: functional, cell-based
[22] = test system: MDA-MB-231; experiment: Antitumor activity against human MDA-MB-231 cells xenografted in BALB/c-nu mouse assessed as reduction in tumor weight at 20 mg/kg, iv dosed every other day for 15 days; format: functional; settings: MDA-MB-231, 360 h
[23] = test system: MDA-MB-231; experiment: Induction of DNA damage in human MDA-MB-231 cells assessed as ATM expression level at 1 to 5 uM after 24 hrs by Western blot method; format: functional, cell-based
[24] = target: DNA topoisomerase 2-alpha (Homo sapiens) (UniProt P11388); experiment: Inhibition of human recombinant topoisomerase 2alpha assessed as reduction in pBR322 DNA relaxation at 100 uM incubated for 30 mins by DNA gel electrophoresis

inhibition [8]: Active
inhibition [16]: Dose-dependent effect
Activity [17]: inactive
inhibition [18]: Active
inhibition [19]: Active
inhibition [24]: Active
SMILES: OCc1cc(-c2ccc3cc(O)ccc3c2)ccc1O
Activity [1]: Active
Activity [2]: Active
Activity [3]: Active
Activity [4]: inactive
Activity [5]: Active
Activity [6]: Active
Activity [7]: Active
Activity [9]: Active
Activity [10]: inactive
Activity [11]: Dose-dependent effect
Activity [12]: Non-toxic
Activity [13]: inactive
Activity [14]: 77.79%
IC50 [15]: 1 µM
IC50 [20]: 2.8 µM
IC50 [21]: 1.3 µM
inhibition in vivo at 20 mg/kg [22]: 43.1%
Activity [23]: inactive
